Each structure is given as a SMILES string.

This data set is described as follows: Reconstitution studies in 150 mL Ora-Sweet SF syrup (visual inspection). It counts as physicochemical. The conditions noted are these: 150 mL Ora-Sweet SF sugar-free flavored syrup. The protocol:
The scaled-up enalapril and mannitol powder compositions (Enalapril Powder Composition A and the like) were examined in reconstitution studies where 150 mL Ora-Sweet® SF sugar-free flavored syrup was to the powder compositions.
Reconstitution of Neat Enalapril Powder in Bottle: Due to the ‘clouding’ in the reconstitution as well as the uniformity issues in the scale-up studies of Enalapril Powder Composition A, neat enalapril, i.e., drug alone, without any excipients, was examined for scale-up bottle filling and subsequent reconstitution.

Regarding `CCOC(=O)[C@H](CCc1ccccc1)N[C@@H](C)C(=O)N1CCC[C@H]1C(=O)O` [neat enalapril, enalapril], the “Reconstitution, visual observation of dissolution” value is “did not dissolve”.

(Values after US9968553B1, “Enalapril compositions” (Silvergate Pharmaceuticals, Inc., priority 2012, dated 2018).)
